This passage reports TGI results from PubChem BioAssay (NCI).

Structures are written as SMILES.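 The compound was tested at five concentrations on cells cultured in 96-well plates, with a 48-hour exposure period. TGI denotes the concentration required for complete inhibition of growth.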 *1 amine or outer side, *2 acyl side, *3 side chain or, on linkers, in order; H or OH if unused. Where a SMILES comes first, the peptide text is derived from it. Bridges are numbered along the chain shown (N, C = ends). [ ]: non-standard residue; d: D form. X59 = COc1c(N[*:1])cccc1C(=O)O[C@H](C(=O)[C@H](C)C(=O)[*:2])C(C)C; X58 = CC(C)C[C@H](C(=O)[*:2])C(C)C(=O)C1CCCN1[*:1]; NMeY = CN[C@@H](Cc1ccc(O)cc1)C(=O)O; Lac = C[C@H](O)C(=O)O Where only a bound is given, the exact number is not on record here.

Some test systems named below: BT-549 breast; HL-60(TB) leukemia; SK-OV-3 ovarian; MDA-MB-231 breast; HT29 colon; HCT-116 colon; HOP-62 NSCLC; NCI-H460 lung; NCI-H226 lung; MDA-MB-435; RPMI-8226 leukemia; RXF 393 renal; MALME-3M melanoma; A498 renal.
Holding throughout (experiment): inhibition of tumour cell growth, NCI panel, 48 h

Consider `CCN(CC)c1ccc2cc(-c3csc(C)n3)c(=O)oc2c1`, for which the TGI in the test on BT-549 breast, in the test with HL-60(TB) leukemia, in the test on SK-OV-3 ovarian, in the test with MDA-MB-231 breast, in the test with HT29 colon and in the test with HCT-116 colon was greater than 100 µM throughout. The TGI is 94.6 µM in the test on HOP-62 NSCLC; greater than 100 µM in the test on NCI-H460 lung; greater than 100 µM in the test on NCI-H226 lung; greater than 100 µM in the test with MDA-MB-435; greater than 100 µM in the test with RPMI-8226 leukemia; greater than 100 µM in the test with RXF 393 renal.

In the case of `CCNC1=C(NC(=O)c2ccc(OC)cc2)C(=O)c2ccccc2C1=O`, the TGI is 50.9 µM in the test with MALME-3M melanoma; greater than 100 µM in the test on BT-549 breast; greater than 100 µM in the test with HL-60(TB) leukemia; greater than 100 µM in the test on SK-OV-3 ovarian; greater than 100 µM in the test with MDA-MB-231 breast; 76.9 µM with HT29 colon. Besides, the TGI was greater than 100 µM in the test on HCT-116 colon; greater than 100 µM in the test with HOP-62 NSCLC; greater than 100 µM with NCI-H460 lung; greater than 100 µM in the test on NCI-H226 lung; 31.1 µM in the test with MDA-MB-435; greater than 100 µM in the test on RPMI-8226 leukemia. The same compound yielded a TGI in the test on RXF 393 renal of 88.2 µM.

With `CC(C)=CC[C@H]1C[C@@]2(CC=C(C)C)C(=O)/C(=C(/O)c3ccccc3)C(=O)[C@](CC=C(C)C)(C2=O)C1(C)C`, the TGI in the test with MALME-3M melanoma is 27.9 µM; in the test with BT-549 breast it was 35 µM; in the test on SK-OV-3 ovarian it was 24.3 µM; in the test on MDA-MB-231 breast, 22.3 µM; in the test on HT29 colon, 23.4 µM; in the test on HCT-116 colon it was 14.5 µM. The TGI was 29.3 µM with HOP-62 NSCLC; 11.5 µM in the test on NCI-H460 lung; 26.3 µM in the test with A498 renal; 36.2 µM in the test on NCI-H226 lung; 26.2 µM with MDA-MB-435; greater than 100 µM in the test with RPMI-8226 leukemia. The same compound returned a TGI with RXF 393 renal of 24.1 µM.

For the compound `CC(=O)c1sc2n(C)c(=O)c3ccccc3[n+]2c1C`, the TGI in the test with BT-549 breast, in the test on HL-60(TB) leukemia, with SK-OV-3 ovarian, in the test on MDA-MB-231 breast, in the test with HT29 colon and with HCT-116 colon was greater than 100 µM each time. For the same compound, the TGI with HOP-62 NSCLC, in the test on NCI-H460 lung, in the test on NCI-H226 lung, in the test on MDA-MB-435, in the test on RPMI-8226 leukemia and in the test on RXF 393 renal was greater than 100 µM in each case.

For `COc1ccc(C[C@H]2C(=O)O[C@H](C)[C@H](NC(=O)[C@@H](CC(C)C)C(C)C(=O)C3CCCN3C(=O)[C@H](C)O)C(=O)Nc3cccc(c3OC)C(=O)O[C@@H](C(C)C)C(=O)[C@H](C)C(=O)N[C@@H](CC(C)C)C(=O)N3CCC[C@H]3C(=O)N2C)cc1` (some centres not stated) (H-[Lac][X58]T[X59]LP[NMeY](Me); ester 3-C), the TGI with MALME-3M melanoma, with BT-549 breast, in the test on SK-OV-3 ovarian, with MDA-MB-231 breast, in the test with HT29 colon and in the test on HCT-116 colon was greater than 12.5 µM each time. For the same compound, the TGI was greater than 12.5 µM with HOP-62 NSCLC; greater than 12.5 µM in the test on NCI-H460 lung; greater than 12.5 µM with NCI-H226 lung; greater than 12.5 µM in the test on MDA-MB-435; 10.8 µM in the test with RPMI-8226 leukemia; greater than 12.5 µM in the test with RXF 393 renal.

For `CN(C)CCN=C1Nc2ccccc2C(=O)N2CSCC12` (configuration not stated), the TGI in the test with MALME-3M melanoma, with BT-549 breast, with SK-OV-3 ovarian, in the test on MDA-MB-231 breast, with HT29 colon and in the test on HCT-116 colon was greater than 100 µM throughout. Further, the TGI in the test on HOP-62 NSCLC, in the test with NCI-H460 lung, in the test with A498 renal, in the test on NCI-H226 lung, in the test with MDA-MB-435 and in the test with RPMI-8226 leukemia was greater than 100 µM in each case. The same compound returned a TGI in the test with RXF 393 renal greater than 100 µM.

For the compound `Cc1ccc(S(=O)(=O)OI(O)CC(F)(F)F)cc1`, the TGI with BT-549 breast, in the test with HL-60(TB) leukemia, in the test with SK-OV-3 ovarian, in the test on MDA-MB-231 breast, in the test on HT29 colon and in the test with HCT-116 colon was greater than 100 µM each time. Moreover, the TGI in the test on HOP-62 NSCLC, in the test on NCI-H460 lung, in the test with A498 renal, in the test with NCI-H226 lung, in the test with MDA-MB-435 and in the test with RPMI-8226 leukemia was greater than 100 µM throughout. Also, the TGI with RXF 393 renal is greater than 100 µM.

Regarding `N#Cc1nc(-c2ccc(-c3nc(C#N)c(N)o3)cc2)oc1N`, the TGI in the test on MALME-3M melanoma, in the test on BT-549 breast, in the test with HL-60(TB) leukemia, in the test with SK-OV-3 ovarian, with MDA-MB-231 breast and in the test with HT29 colon was greater than 10 µM throughout. For the same compound, the TGI in the test with HCT-116 colon, with HOP-62 NSCLC, in the test with NCI-H460 lung, in the test on NCI-H226 lung, in the test with MDA-MB-435 and in the test on RPMI-8226 leukemia was greater than 10 µM in each case. This compound also gave a TGI with RXF 393 renal greater than 10 µM.

On to `COC(=O)C1=C(C(=O)OC)C(OO)(c2ccccc2)OC1=O` (configuration not stated), for which the TGI in the test on MALME-3M melanoma, with BT-549 breast, in the test on HL-60(TB) leukemia, in the test with SK-OV-3 ovarian, in the test on MDA-MB-231 breast and in the test with HT29 colon was greater than 100 µM throughout. Besides, the TGI with HCT-116 colon, in the test with NCI-H460 lung, in the test on NCI-H226 lung, with MDA-MB-435 and in the test on RXF 393 renal was greater than 100 µM in each case.

Take `Oc1ccc2ccccc2c1NCn1nc(CCCCCCCCc2nn(CNc3c(O)ccc4ccccc34)c(=S)o2)oc1=S`: the TGI is greater than 100 µM in the test with MALME-3M melanoma; greater than 100 µM in the test on BT-549 breast; greater than 100 µM in the test with SK-OV-3 ovarian; greater than 100 µM in the test with MDA-MB-231 breast; greater than 100 µM in the test with HT29 colon; 79.4 µM with HCT-116 colon. For the same compound, the TGI in the test with HOP-62 NSCLC, in the test with NCI-H460 lung, in the test with A498 renal, with NCI-H226 lung, in the test with MDA-MB-435 and in the test on RPMI-8226 leukemia was greater than 100 µM each time.

In the case of `CN1C(=O)C(C#N)C2C[C@@]1(C)Oc1ccccc12` (some centres not stated), the TGI with BT-549 breast, in the test on HL-60(TB) leukemia, with SK-OV-3 ovarian, in the test with MDA-MB-231 breast, in the test with HT29 colon and with HCT-116 colon was greater than 100 µM in each case. The TGI with HOP-62 NSCLC, in the test on NCI-H460 lung, with A498 renal, with NCI-H226 lung, with MDA-MB-435 and in the test with RPMI-8226 leukemia was greater than 100 µM each time. Further, in the test with RXF 393 renal, the TGI is greater than 100 µM.
